According to ChEMBL document CHEMBL5113493, “4th generation nonsteroidal aromatase inhibitors: An iterative SAR-guided design, synthesis, and biological evaluation towards picomolar dual binding inhibitors” (Eur J Med Chem, 2022):

Experiments:
MCF-10A = assay: Cytotoxicity against human MCF-10A cells at 1 uM measured after 48 hrs by BrdU colorimetric immunoassay; assay type: toxicity, cell-based
MDA-MB-231 = assay: Cytotoxicity against human MDA-MB-231 cells at 1 uM measured after 48 hrs by BrdU colorimetric immunoassay; assay type: toxicity, cell-based; settings: mda-mb-231, 48 h
Aromatase = biological target: T1, Aromatase (Homo sapiens, UniProt P11511); assay type: cell-based, JEG-3
T1 sequence (P11511 whole entry): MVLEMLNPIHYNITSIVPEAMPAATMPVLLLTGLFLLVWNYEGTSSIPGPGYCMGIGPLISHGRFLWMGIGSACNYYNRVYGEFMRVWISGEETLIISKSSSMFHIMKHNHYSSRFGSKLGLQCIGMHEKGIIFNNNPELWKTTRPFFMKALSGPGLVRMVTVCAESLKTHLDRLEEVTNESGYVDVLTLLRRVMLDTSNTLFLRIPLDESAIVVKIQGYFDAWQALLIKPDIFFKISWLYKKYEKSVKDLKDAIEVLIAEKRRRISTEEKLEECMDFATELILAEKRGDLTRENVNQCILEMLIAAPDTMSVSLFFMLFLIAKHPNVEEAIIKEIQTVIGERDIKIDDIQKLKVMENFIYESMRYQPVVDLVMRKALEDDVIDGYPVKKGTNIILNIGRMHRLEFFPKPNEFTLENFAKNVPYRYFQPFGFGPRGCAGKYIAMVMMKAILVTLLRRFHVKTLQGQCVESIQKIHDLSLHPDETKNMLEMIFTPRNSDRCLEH

Cytochrome P450 1A2 = biological target: T2, Cytochrome P450 1A2 (Homo sapiens, UniProt P05177)
T2 sequence (P05177 whole entry): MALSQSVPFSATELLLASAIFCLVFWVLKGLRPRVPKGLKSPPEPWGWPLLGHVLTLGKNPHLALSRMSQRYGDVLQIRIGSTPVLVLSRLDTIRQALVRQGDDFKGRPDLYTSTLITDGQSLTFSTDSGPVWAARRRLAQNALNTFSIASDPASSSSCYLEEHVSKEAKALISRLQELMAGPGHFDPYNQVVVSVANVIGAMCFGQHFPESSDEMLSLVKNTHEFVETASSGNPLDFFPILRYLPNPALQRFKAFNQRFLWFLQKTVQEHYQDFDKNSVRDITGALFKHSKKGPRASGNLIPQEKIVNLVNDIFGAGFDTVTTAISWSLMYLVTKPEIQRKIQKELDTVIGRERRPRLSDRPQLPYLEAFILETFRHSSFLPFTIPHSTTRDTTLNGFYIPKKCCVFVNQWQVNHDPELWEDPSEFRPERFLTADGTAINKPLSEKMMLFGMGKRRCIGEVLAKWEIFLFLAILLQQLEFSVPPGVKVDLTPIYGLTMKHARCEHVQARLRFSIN

Cytochrome P450 3A4 = Cytochrome P450 3A4 (Homo sapiens, UniProt P08684)
Cytochrome P450 3A4, sequence (P08684 whole entry): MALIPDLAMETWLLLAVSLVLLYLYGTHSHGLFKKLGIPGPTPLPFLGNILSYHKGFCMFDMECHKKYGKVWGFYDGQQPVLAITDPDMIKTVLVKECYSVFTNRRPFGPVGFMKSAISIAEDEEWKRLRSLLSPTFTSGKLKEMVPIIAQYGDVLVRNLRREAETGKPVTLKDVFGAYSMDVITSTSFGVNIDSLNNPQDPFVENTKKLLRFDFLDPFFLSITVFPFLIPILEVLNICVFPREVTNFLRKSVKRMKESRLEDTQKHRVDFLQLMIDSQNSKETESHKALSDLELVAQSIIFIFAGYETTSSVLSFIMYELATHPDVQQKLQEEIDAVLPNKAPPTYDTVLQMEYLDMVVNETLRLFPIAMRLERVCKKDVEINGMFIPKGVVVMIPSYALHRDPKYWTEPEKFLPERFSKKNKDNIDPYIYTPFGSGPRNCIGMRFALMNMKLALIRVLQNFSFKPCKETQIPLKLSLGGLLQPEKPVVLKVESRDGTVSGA

Cytochrome P450 2D6 = Cytochrome P450 2D6 (Homo sapiens, UniProt P10635)
Cytochrome P450 2D6, sequence (P10635 whole entry): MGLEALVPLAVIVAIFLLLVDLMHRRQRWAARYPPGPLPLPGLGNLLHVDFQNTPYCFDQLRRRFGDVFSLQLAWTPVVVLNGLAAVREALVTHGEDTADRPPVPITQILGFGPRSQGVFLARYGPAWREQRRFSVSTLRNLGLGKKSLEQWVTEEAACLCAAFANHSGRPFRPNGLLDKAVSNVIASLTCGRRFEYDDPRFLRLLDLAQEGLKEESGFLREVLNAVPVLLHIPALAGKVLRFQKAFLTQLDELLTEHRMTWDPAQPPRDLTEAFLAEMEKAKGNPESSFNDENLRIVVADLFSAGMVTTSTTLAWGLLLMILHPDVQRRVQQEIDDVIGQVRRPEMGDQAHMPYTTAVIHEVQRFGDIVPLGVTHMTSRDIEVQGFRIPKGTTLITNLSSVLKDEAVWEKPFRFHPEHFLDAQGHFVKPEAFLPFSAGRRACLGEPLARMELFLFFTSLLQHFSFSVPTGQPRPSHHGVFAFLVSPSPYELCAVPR

Cytochrome P450 2C9 = Cytochrome P450 2C9 (Homo sapiens, UniProt P11712)
Cytochrome P450 2C9, sequence (P11712 whole entry): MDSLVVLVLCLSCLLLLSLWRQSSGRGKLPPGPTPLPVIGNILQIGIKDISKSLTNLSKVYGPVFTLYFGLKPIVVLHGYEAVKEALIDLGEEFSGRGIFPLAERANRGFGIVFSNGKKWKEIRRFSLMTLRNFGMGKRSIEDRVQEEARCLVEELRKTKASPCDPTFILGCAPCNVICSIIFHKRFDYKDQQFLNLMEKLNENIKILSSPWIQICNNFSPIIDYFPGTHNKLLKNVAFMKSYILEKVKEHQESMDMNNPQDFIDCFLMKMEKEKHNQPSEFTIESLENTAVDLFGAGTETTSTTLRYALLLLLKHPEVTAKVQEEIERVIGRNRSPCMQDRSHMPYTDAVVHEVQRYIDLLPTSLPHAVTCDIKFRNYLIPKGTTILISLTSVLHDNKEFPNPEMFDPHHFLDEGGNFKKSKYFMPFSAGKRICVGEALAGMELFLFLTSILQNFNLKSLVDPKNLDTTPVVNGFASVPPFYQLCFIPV

Cytochrome P450 2C19 = Cytochrome P450 2C19 (Homo sapiens, UniProt P33261)
Cytochrome P450 2C19, sequence (P33261 whole entry): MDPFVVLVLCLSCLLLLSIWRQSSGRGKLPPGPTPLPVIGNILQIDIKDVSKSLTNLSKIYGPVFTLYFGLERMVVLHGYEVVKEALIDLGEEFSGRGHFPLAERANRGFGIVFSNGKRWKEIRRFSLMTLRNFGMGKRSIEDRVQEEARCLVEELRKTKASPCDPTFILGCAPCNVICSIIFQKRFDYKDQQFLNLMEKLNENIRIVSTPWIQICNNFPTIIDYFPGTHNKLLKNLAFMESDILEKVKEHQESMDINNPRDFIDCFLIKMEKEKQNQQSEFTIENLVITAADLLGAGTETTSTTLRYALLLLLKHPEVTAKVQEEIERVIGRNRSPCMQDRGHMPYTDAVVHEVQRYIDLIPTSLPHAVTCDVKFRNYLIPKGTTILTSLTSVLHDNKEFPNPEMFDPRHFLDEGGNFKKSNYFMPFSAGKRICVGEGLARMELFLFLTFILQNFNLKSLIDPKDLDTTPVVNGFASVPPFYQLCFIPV

For COc1ccc2cc(C(c3ccc(F)cc3)n3cncn3)oc2c1 (stereo not drawn), the Activity (MCF-10A) was “Non-Toxic” and the Activity (MDA-MB-231) was “Non-Toxic”.

With CCC#CCOc1ccc2c(=O)c3ccc(Cn4ccnc4)cc3oc2c1 the IC50 (Aromatase) was 0.01 nM.

CCC#CCOc1cc(Cn2ccnc2)c2oc3ccccc3c(=O)c2c1 showed an IC50 (Aromatase) of 0.77 nM.

CCC#CCOc1cc(Cn2ccnc2)c2c(=O)c3ccccc3oc2c1 was tested, and the IC50 (Aromatase) was 0.01 nM.

CC#CCOc1ccc2cc(C(c3ccc(F)cc3)n3cncn3)oc2c1 (stereo not drawn) showed an IC50 (Aromatase) of 4.1 nM.

In the case of CC#CCOc1ccc2cc(C(c3ccc(Cl)cc3)n3cncn3)oc2c1 (stereo not drawn), the IC50 (Aromatase) is reported as 0.53 nM.

Work on Oc1ccc(C(c2cc3cc(Cl)ccc3o2)n2cncn2)cc1 (stereo not drawn) yielded an IC50 (Aromatase) of 30.3 nM.

In the case of Oc1ccc2cc(C(c3ccc(F)cc3)n3cncn3)oc2c1 (stereo not drawn), the IC50 (Aromatase) is reported as 0.39 nM, the Activity (MCF-10A) is reported as “Non-Toxic” and the Activity (MDA-MB-231) is reported as “Non-Toxic”.

For CCC#CCOc1ccc2cc(C(c3ccc(F)cc3)n3cncn3)oc2c1 (stereo not drawn), the IC50 (Aromatase) was 0.51 nM, the Activity (MCF-10A) was “Non-Toxic” and the Activity (MDA-MB-231) was “Non-Toxic”.

In the case of CCC#CCOc1ccc(C(c2cc3cc(Cl)ccc3o2)n2cncn2)cc1 (stereo not drawn), the IC50 (Aromatase) is reported as over 1000 nM.

Work on Oc1ccc2oc(C(c3ccc(Cl)cc3)n3cncn3)cc2c1 (stereo not drawn) yielded an IC50 (Aromatase) of 5.67 nM.

In the case of CCC#CCOc1ccc2cc(C(c3ccc(C#N)cc3)n3cncn3)oc2c1 (stereo not drawn), the IC50 (Aromatase) is reported as 0.72 nM.

CCOc1ccc2cc(C(c3ccc(Cl)cc3)n3cncn3)oc2c1 (stereo not drawn) gave an IC50 (Aromatase) of 0.46 nM.

Work on COc1ccc(C(c2cc3cc(Cl)ccc3o2)n2cncn2)cc1 (stereo not drawn) yielded an IC50 (Aromatase) of over 1000 nM.

In the case of COc1ccc2oc(C(c3ccc(Cl)cc3)n3cncn3)cc2c1 (stereo not drawn), the IC50 (Aromatase) is reported as 2.01 nM.

C#CCOc1ccc2cc(C(c3ccc(Cl)cc3)n3cncn3)oc2c1 (stereo not drawn) showed an IC50 (Aromatase) of 1.03 nM.

CC#CCOc1ccc2cc(C(c3ccc(C#N)cc3)n3cncn3)oc2c1 (stereo not drawn) was tested, and the IC50 (Cytochrome P450 1A2) was 2880 nM, the IC50 (Cytochrome P450 3A4) was over 25000 nM and the IC50 (Cytochrome P450 2D6) was over 25000 nM. The IC50 (Cytochrome P450 2C9) was over 25000 nM, the IC50 (Aromatase) was 0.09 nM and the IC50 (Cytochrome P450 2C19) was 2170 nM. The Activity (MCF-10A) was “Non-Toxic” and the Activity (MDA-MB-231) was “Non-Toxic”.

For CCC#CCOc1ccc2oc(C(c3ccc(Cl)cc3)n3cncn3)cc2c1 (stereo not drawn), the IC50 (Aromatase) was 21 nM.

In the case of CCC#CCOc1ccc2cc(C(c3ccc(Cl)cc3)n3cncn3)oc2c1 (stereo not drawn), the IC50 (Aromatase) is reported as 2.76 nM.

COc1cccc2c1C(=O)c1c(O)c3c(c(O)c1C2=O)C[C@@](O)(C(=O)CO)C[C@@H]3O[C@H]1C[C@H](N)[C@H](O)[C@H](C)O1 [DOXORUBICIN] was tested, and the Activity (MCF-10A) was “Non-Toxic” and the Activity (MDA-MB-231) was “Non-Toxic”.
